{"source": "patent US20260294922A1", "about": "“Inhibitors of JUN N-Terminal Kinases (JNK1, JNK2, and/or JNK3) and Mitogen-Activated Protein Kinases (MAPK8, MAPK9, and/or MAPK10) and Methods of Using Same” (Baylor College of Medicine, priority 2023, published 2026)", "key": {"iHEEC": {"test_system": "iHEEC", "assay": "Cell morphology, phospho-JNK and vimentin staining in iHEEC", "type": "cell-based, human", "excerpt": "FIGS. 28A-28C depict the impact of JNK inhibition on the cellular morphology and expression of surface marker, vimentin in iHEEC. […] Phospho-JNK staining in iHEEC can be either punctate staining in intracellular organelles or disperse staining through the cytoplasmic space of cells."}, "ERK2": {"biological_target": "T1, ERK2 (Homo sapiens, UniProt P28482)", "T1 construct": "purchased ThermoFisher (SelectScreen, outsourced service)", "T1 sequence (P28482 whole entry)": "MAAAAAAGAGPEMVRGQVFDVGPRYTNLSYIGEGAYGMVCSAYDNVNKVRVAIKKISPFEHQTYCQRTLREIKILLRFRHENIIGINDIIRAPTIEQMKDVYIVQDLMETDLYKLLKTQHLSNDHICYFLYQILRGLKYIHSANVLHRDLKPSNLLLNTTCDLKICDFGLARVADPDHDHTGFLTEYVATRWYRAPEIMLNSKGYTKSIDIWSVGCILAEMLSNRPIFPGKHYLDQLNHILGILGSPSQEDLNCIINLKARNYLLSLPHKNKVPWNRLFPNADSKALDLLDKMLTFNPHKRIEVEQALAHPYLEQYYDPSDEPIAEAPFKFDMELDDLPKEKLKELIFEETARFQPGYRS", "assay": "ThermoFisher SelectScreen, ERK2", "type": "binding"}, "pSer63 and pSer73 Jun": {"test_system": "pSer63 and pSer73 Jun", "assay": "In-cell Western blot of Jun phosphorylation", "type": "cell-based", "conditions": "0.1, 1 and 10 μM", "procedure": "The top section of the in-cell Western is pSer73 and the lower section is pSer63. Experiments were performed in triplicate for 3 concentrations (0.1 μM, 1 μM, and 10 μM) FIGS. 27B-27C: graphical summary of the in-cell Western blot is provided for pSer73 (FIG. 27B) and pSer63 (FIG. 27C)."}, "HepG2 cells": {"test_system": "HepG2 cells", "assay": "HepG2 cell viability (ATP consumption)", "conditions": "CDD-2575 25 μM; CDD-2728, CDD-2624 up to 75", "description": "This assay reflects cell viability. […] To determine if the responses observed in endometriotic epithelial cells and endometriotic stromal cell cultures were cytotoxic, cell viability was performed in HepG2 cells."}, "[1]": {"test_system": "primary human endometriotic stromal cells (patient 50)", "assay": "IL-1β-stimulated pro-inflammatory gene expression in primary endometriotic stromal cells, patient 50", "type": "cell-based", "conditions": "patient 50, relative to CDD-939", "excerpt": "FIGS. 14G-14H represent responses of primary human endometriotic stromal cells [from the endometrioma lesion] from endometriosis patient “50”.\nFIGS. 15A-15H provide replicate results of the response of primary human endometriotic stromal cells (derived from the lesions) obtained from endometriosis patient “50”. In each example. […] In each example, CDD-2728 inhibited IL-1β-stimulated pro-inflammatory biomarker responses in primary endometriotic stromal cell cultures. Lower concentrations of JNK inhibitors were required to reduce the proinflammatory response of IL-1β in stromal cells than the concentration of JNK-I in 12Z epithelial cells.\nAnother target tissue of JNK inhibitors in the treatment of endometriosis are endometriotic stromal cells. To further exemplify the relevance of the discoveries of novel JNK inhibitors for endometriosis, stromal cells obtained from the endometriotic lesions of a patient with endometriosis have been cultured. The compliant identifier for this patient is Eosis50. These cells represent stromal cells from an ovarian endometrioma. Similar to culture system described elsewhere herein, the inflammatory environment of peritoneal endometriosis was simulated by the addition of IL-1β and increasing concentrations of either bentamapimod or CDD-2728 were added to these stromal cell cultures. […]"}, "[2]": {"assay": "Pharmacokinetics after intraperitoneal administration in mice", "type": "in vivo", "conditions": "mouse, ip, 50 mg/kg, plasma", "excerpt": "(§1) Based on stability and estimated half-life of compounds exposed to liver microsome in vitro, CDD-2728 was selected for PK evaluation."}, "[3]": {"test_system": "immortalized human endometriotic epithelial cells (iHEEC)", "assay": "Phosphorylation of JNK and Jun in iHEEC", "type": "cell-based", "excerpt": "FIG. 26A depicts the effects of CDD-2728 and CDD-3013 on phosphorylation of the JNK enzyme itself (i.e., representing MEK4 inhibition) and phosphorylation of pSer63 and pSer73 on the transcription factor Jun in immortalized human endometriotic epithelial cells (iHEEC). The HEEC cells are a well characterized cell line that are relevant for the evaluation of inflammatory endpoints and measures of epithelial-to-mesenchymal transitions (EMT). […] This is consistent with the potency relationships of CDD-2728 relative to bentamapimod observed in cytokine gene expression described above in iHEEC cells and primary human stromal endometriotic cells. […] SP600125 has been frequently described as a poorly-selective JNK-I but in this context provides additional confirmation of inhibition of the JNK target kinase for CDD-2728. […] This adds further support to the critical role of JNK-1 to the therapeutic effect of the JNK inhibitors of the disclosure."}, "[4]": {"assay": "Pharmacokinetics after oral administration in mice", "type": "in vivo", "conditions": "mouse, 50 mg/kg, plasma", "excerpt": "as §1"}}, "note": "“Also recorded” adds a separate entry of the source."}
{"smiles": "CN(C)C(=O)c1cc(NC(=O)c2cc3c(-c4cnc5[nH]ccc5c4)cccc3s2)ccc1O", "note": "[CDD-2728, N-(3-(dimethylcarbamoyl)-4-hydroxyphenyl)-4-(1H-pyrrolo[2,3-b]pyridin-5-yl)benzo[b]thiophene-2-carboxamide]", "values": [{"measurement": "phospho-JNK staining", "setting": "iHEEC", "result": "reduce the intensity of phospho-JNK staining"}, {"measurement": "vimentin staining", "setting": "iHEEC", "result": "not a dramatic change in the vimentin staining"}, {"measurement": "Kd", "setting": "ERK2", "result": 534, "unit": "nM"}, {"measurement": "Jun phosphorylation (pSer73, pSer63), relative to Tanzisertib", "setting": "pSer63 and pSer73 Jun", "result": "more effective inhibitors of Jun phosphorylation than Tanzisertib"}, {"measurement": "effect on HepG2 cell viability / ATP consumption", "setting": "HepG2 cells", "result": "tolerated (up to 75 μM); also recorded: neither CDD-2624 or CDD-2728 had significant effects on ATP consumption"}, {"measurement": "inhibition of IL-6, IL-8, MMP-3 and PTGS2 gene expression", "setting": "[1]", "result": "effective inhibitor of IL-6 gene expression; also recorded: more effective inhibitor of the biomarkers IL-8, MMP-3, and PTGS2 gene expression than CDD-939; also recorded: superior efficacy and potency"}, {"measurement": "AUC(0-inf)", "setting": "[2]", "result": "8.03 ± 2.52", "unit": "µM·h"}, {"measurement": "AUC(0-t)", "setting": "[2]", "result": "5.7 ± 2.53", "unit": "µM·h"}, {"measurement": "CL/F", "setting": "[2]", "result": 245, "unit": "mL/min/kg"}, {"measurement": "Cmax", "setting": "[2]", "result": "440 ± 190", "unit": "nM"}, {"measurement": "Tmax", "setting": "[2]", "result": "3 ± 1.15", "unit": "h"}, {"measurement": "MRT last", "setting": "[2]; read-out: MRT0-t", "result": "8.57 ± 1.33", "unit": "h"}, {"measurement": "MRT inf", "setting": "[2]; read-out: MRT0-∞", "result": "20.5 ± 13", "unit": "h"}, {"measurement": "half-life", "setting": "[2]; read-out: T1/2 (converted)", "result": "14.2 ± 8.92", "unit": "h"}, {"measurement": "half-life", "setting": "[2]; read-out: half-life, injected into the peritoneal cavity (converted)", "result": 14, "unit": "h"}, {"measurement": "phosphorylation of JNK1 (P46) and JNK2 (P54)", "setting": "[3]", "result": "inhibits phosphorylation of JNK1 (P46) and JNK2 (P54)"}, {"measurement": "phosphorylation of Jun at pSer63 and pSer73", "setting": "[3]", "result": "more effectively than CDD-939"}, {"measurement": "AUC(0-inf)", "setting": "[4]", "result": "3.03 ± 0.98", "unit": "µM·h"}, {"measurement": "AUC(0-t)", "setting": "[4]", "result": "2.95 ± 0.95", "unit": "µM·h"}, {"measurement": "CL/F", "setting": "[4]", "result": 650, "unit": "mL/min/kg"}, {"measurement": "Cmax", "setting": "[4]", "result": "1510 ± 530", "unit": "nM"}, {"measurement": "Tmax", "setting": "[4]", "result": "0.63 ± 0.25", "unit": "h"}, {"measurement": "half-life", "setting": "[4]", "result": "1.48 ± 0.32", "unit": "h"}, {"measurement": "MRT last", "setting": "[4]; read-out: MRT0-t", "result": "1.7 ± 0.34", "unit": "h"}, {"measurement": "MRT inf", "setting": "[4]; read-out: MRT0-∞", "result": "1.91 ± 0.44", "unit": "h"}]}
